US9247759B2, “Identification of human T2R receptors that respond to bitter compounds that elicit the bitter taste in compositions, and the use thereof in assays to identify compounds that inhibit (block) bitter taste in compositions and use thereof” (SENOMYX, INC., priority 2007, dated 2016)
Like-named read-outs stand apart in the source and are kept apart here.

Assays:
hT2R8 [1] = target: T1, hT2R8 (Homo sapiens (Human), UniProt Q9NYW2); experiment: hT2R8 antagonist high-throughput FLIPR assay, stable cell line with G16g44, agonist andrographolide; type: cell-based
T1 sequence (Q9NYW2 whole entry): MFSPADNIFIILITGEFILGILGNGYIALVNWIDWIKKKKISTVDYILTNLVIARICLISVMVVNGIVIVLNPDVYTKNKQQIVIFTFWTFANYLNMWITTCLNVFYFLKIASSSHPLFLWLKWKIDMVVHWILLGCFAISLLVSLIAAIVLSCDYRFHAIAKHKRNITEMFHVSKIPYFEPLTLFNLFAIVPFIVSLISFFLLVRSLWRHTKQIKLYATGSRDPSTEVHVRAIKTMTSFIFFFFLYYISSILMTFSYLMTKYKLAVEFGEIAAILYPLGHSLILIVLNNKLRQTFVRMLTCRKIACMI
Outline: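 Antagonist screen: compounds co-applied with agonist andrographolide at 200 μM, a dose giving 70–80% of maximal hT2R8 activation. Fluorescence measured by FLIPR in a stable HEK293 line expressing both hT2R8 and the promiscuous G16g44 protein.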

[2] = tested on: bitterness of T2R8 specific agonist; experiment: Taste test with T2R8 specific agonist comparing a control bitter blocker and compound of interest; type: in vivo, human; conditions: antagonist conc. 1
Protocol: To determine the effectiveness of an individual antagonist, taste tests were performed with a T2R8 specific agonist, the compound of interest and a reference bitter blocker. We have previously described a good hT2R8 antagonist that was proven to have taste effect, Example 4-8 from U.S. Provisional Appl. Ser. No. 60/957,129, filed Aug. 21, 2007: N-(1-((3,5-dimethylisoxazol-4-yl)methyl)-1H-pyrazol-4-yl)benzo[d][1,3]dioxole-5-carboxamide.

[3] = tested on: bitter taste of instant coffee; experiment: 2-alternative forced choice taste test, instant coffee with hT2R8 antagonists; type: in vivo, human; conditions: antagonist 5 μM
Protocol: Taste tests were performed with hT2R8 antagonists in instant coffee using a 2-alternative forced choice method with a taste panel of 15-20 panelists. Coffee samples with the antagonists were given to the taste panelists together with the same sample without antagonists, the panelists were asked to identify the bitterer sample within the pair.

hT2R8 [4] = target: T1, hT2R8; conditions: compared with taster hT2R43-W35 and hT2R44-W35 alleles, FIG. 6
Source text: FIG. 6 is a plot of receptor activity as a function of log of the saccharin concentration.
Pronin et al., Curr. Biol. 17: 1403-8 (2007). Five individuals with the “taster” alleles (hT2R43-W35 and/or hT2R44-W35) and five with the “non-taster” alleles (hT2R43-S35 and hT2R44-R35) were selected based on genotyping analysis. Each subject was presented with 6 pairs of solutions and asked to determine which of the samples in a pair tasted more bitter.

| IC50 (hT2R8 [1]; Table 6, read-out: HTS assay IC50) [µM] | IC50 (hT2R8 [1]; table after Example 10-97, read-out: hT2R8 IC50) [µM] | IC50 (hT2R8 [1]; unit uM, read-out: IC50 on hT2R08 bitter receptor) [µM] | responsiveness of hT2R8 to saccharin (hT2R8 [4]) | Structure (SMILES) | Selected as more bitter: +other ([2]; sample with 10-10) | Selected as more bitter: 10-8 ([2]; sample with control blocker 10-8) | Selected as bitterer: With antagonists [3] | Selected as bitterer: Without antagonists [3] |
| --- | --- | --- | --- | --- | --- | --- | --- | --- |
| 0.02 to 0.04 | 0.026 | 0.035 |  | Cc1noc(C)c1Cn1cc(N2C(=O)CN(Cc3cccc(O)c3)C2=O)cn1 [Example 10-10, 3-(1-((3,5-dimethylisoxazol-4-yl)methyl)-1H-pyrazol-4-yl)-1-(3-hydroxybenzyl)imidazolidine-2,4-dione] | 2 | 14 | 2 | 14 |
|  |  |  | less responsive | O=C1NS(=O)(=O)c2ccccc21 [saccharin] |  |  |  |  |
